ChEMBL document CHEMBL5390209, “Spinosyn A and Its Derivative Inhibit Colorectal Cancer Cell Growth via the EGFR Pathway” (J Nat Prod, 2023)
Active and inactive are the calls of the source. No cut-off for these calls is given here.

Columns and labels:
HT-29 [1] = assay: Antiproliferative activity against human HT-29 cells assessed as cell growth inhibition incubated for 48 hrs by MTT assay; format: functional, cell-based; conditions: for IC50: HT-29, 48 h
SW480 [2] = assay: Antiproliferative activity against human SW480 cells assessed as cell growth inhibition incubated for 48 hrs by MTT assay; format: functional, cell-based; conditions: dose >= 10.0 µM
SW-620 = assay: Antiproliferative activity against human SW620 cells assessed as cell growth inhibition incubated for 48 hrs by MTT assay; format: functional, cell-based; conditions: dose >= 10.0 µM
HCT-116 = assay: Antiproliferative activity against human HCT-116 cells assessed as cell growth inhibition incubated for 48 hrs by MTT assay; format: functional, cell-based; conditions: dose >= 10.0 µM
LoVo [3] = assay: Antiproliferative activity against human LoVo cells assessed as cell growth inhibition incubated for 48 hrs by MTT assay; format: functional, cell-based; conditions: dose >= 10.0 µM
RKO = assay: Antiproliferative activity against human RKO cells assessed as cell growth inhibition incubated for 48 hrs by MTT assay; format: functional, cell-based
DLD-1 = assay: Antiproliferative activity against human DLD-1 cells assessed as cell growth inhibition incubated for 48 hrs by MTT assay; format: functional, cell-based; conditions: dose >= 10.0 µM
LoVo [4] = assay: Inhibition of colony formation in human LoVo cells at 0.75 uM incubated for 14 days by crystal violet staining based colony formation assay; format: functional, cell-based; conditions: time 14.0 day
HT-29 [5] = assay: Antitumor activity against human HT-29 cells xenografted Balb/c mouse assessed as reduction in tumor growth at 2.5 mg/kg/day, ip administrated for every other day and measured after 28 days; format: functional, organism-based; conditions: time 28.0 day
HT-29 [6] = assay: Antitumor activity against human HT-29 cells xenografted Balb/c mouse assessed as reduction in tumor cell density at 2.5 mg/kg/day, ip administrated for every other day and measured after 28 days by Hematoxylin and Eosin staining based method; format: functional, organism-based; conditions: time 28.0 day
[7] = Toxicity in human HT-29 cells xenografted Balb/c mouse assessed as change in lung pathology at 2.5 mg/kg/day, ip administrated for every other day and measured after 28 days; format: organism-based; conditions: in vivo, 672 h, time 28 day
[8] = Toxicity in human HT-29 cells xenografted Balb/c mouse assessed as change in kidney pathology at 2.5 mg/kg/day, ip administrated for every other day and measured after 28 days; format: organism-based; conditions: in vivo, 672 h, time 28 day
HT-29 [9] = assay: Antiproliferative activity against EGFR knockout human HT-29 cells assessed as reduction in cell viability incubated for 48 hrs by MTT assay; format: functional, cell-based
SW480 [10] = assay: Antiproliferative activity against EGFR knockout human SW480 cells assessed as reduction in cell viability incubated for 48 hrs by MTT assay; format: functional, cell-based
HT-29 [11] = assay: Antiproliferative activity against HER2 knockout human HT-29 cells assessed as reduction in cell viability incubated for 48 hrs by MTT assay; format: functional, cell-based
HT-29 [12] = assay: Antiproliferative activity against double EGFR/HER2 knockout human HT-29 cells assessed as reduction in cell viability incubated for 48 hrs by MTT assay; format: functional, cell-based
SW480 [13] = assay: Antiproliferative activity against double EGFR/HER2 knockout human SW480 cells assessed as reduction in cell viability incubated for 48 hrs by MTT assay; format: functional, cell-based
[14] = target: Epidermal growth factor receptor (Homo sapiens) (UniProt P00533); assay: Inhibition of EGFR in human HT-29 cells incubated for 24 hrs by Western blotting analysis; format: cell-based; conditions: dose 3.75-15 µM
Sequence of Epidermal growth factor receptor (Homo sapiens) (P00533 whole entry): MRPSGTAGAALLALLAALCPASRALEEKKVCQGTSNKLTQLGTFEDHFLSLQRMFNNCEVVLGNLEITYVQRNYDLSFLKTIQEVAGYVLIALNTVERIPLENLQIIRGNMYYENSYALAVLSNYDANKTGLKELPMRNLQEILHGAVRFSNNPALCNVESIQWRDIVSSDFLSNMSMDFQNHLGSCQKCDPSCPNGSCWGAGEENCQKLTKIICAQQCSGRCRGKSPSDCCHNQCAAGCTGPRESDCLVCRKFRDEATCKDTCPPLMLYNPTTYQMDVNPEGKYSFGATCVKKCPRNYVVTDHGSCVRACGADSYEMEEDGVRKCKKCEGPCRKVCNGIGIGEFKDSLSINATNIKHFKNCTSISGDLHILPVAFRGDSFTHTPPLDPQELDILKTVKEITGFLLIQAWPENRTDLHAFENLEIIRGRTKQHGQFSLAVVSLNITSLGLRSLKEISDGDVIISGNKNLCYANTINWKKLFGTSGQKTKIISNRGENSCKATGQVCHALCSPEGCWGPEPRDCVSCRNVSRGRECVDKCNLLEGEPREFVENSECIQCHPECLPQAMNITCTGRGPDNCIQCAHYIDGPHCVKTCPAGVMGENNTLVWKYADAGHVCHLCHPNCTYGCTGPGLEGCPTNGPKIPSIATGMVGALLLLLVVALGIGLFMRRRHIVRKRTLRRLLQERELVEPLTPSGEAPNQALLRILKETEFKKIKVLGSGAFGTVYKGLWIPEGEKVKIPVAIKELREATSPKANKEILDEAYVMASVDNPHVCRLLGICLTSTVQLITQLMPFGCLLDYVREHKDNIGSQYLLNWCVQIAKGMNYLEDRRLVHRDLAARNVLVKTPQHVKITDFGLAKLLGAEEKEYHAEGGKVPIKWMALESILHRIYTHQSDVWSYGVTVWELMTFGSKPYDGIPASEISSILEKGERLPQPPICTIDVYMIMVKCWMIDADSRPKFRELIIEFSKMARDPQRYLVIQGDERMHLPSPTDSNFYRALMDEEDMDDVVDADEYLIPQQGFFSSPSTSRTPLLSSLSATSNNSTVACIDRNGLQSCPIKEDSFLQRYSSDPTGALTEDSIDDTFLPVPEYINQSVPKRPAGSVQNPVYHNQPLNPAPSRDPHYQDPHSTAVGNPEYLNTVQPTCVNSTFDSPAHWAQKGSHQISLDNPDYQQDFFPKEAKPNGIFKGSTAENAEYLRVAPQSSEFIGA

[15] = target: Receptor tyrosine-protein kinase erbB-2 (Homo sapiens) (UniProt P04626); assay: Inhibition of HER2 in human HT-29 cells incubated for 24 hrs by Western blotting analysis; format: cell-based
Sequence of Receptor tyrosine-protein kinase erbB-2 (Homo sapiens) (P04626 whole entry): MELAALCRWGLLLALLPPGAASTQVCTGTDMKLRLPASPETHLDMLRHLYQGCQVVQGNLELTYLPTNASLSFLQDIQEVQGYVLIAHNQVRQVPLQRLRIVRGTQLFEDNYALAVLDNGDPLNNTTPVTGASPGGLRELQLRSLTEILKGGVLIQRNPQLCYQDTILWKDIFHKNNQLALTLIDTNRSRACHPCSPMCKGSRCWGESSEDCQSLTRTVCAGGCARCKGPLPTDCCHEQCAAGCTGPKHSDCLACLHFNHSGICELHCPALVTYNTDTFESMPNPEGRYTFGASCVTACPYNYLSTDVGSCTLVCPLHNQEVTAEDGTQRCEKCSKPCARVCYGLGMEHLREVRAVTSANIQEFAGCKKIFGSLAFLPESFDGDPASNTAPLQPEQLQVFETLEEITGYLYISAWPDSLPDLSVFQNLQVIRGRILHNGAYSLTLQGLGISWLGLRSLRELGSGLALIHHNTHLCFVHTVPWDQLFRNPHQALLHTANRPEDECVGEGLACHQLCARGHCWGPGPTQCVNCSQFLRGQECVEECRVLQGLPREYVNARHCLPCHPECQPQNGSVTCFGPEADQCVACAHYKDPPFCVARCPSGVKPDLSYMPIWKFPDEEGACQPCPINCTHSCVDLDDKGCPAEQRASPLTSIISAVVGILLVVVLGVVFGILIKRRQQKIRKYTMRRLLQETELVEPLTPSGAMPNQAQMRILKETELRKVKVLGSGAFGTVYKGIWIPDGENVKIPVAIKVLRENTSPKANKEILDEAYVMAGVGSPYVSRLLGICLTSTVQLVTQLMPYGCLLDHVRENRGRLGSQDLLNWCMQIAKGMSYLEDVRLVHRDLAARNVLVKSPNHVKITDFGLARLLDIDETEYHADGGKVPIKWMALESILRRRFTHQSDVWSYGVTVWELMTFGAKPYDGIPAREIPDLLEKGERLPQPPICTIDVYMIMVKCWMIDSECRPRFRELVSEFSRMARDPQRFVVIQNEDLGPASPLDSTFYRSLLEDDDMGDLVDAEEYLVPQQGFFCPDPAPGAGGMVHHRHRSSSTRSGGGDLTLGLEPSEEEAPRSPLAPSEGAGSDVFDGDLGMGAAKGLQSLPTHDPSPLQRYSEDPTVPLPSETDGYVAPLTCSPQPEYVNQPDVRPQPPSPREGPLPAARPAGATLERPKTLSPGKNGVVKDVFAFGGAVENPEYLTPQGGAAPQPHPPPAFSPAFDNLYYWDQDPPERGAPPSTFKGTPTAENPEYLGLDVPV

[16] = target: Epidermal growth factor receptor (Homo sapiens) (UniProt P00533); assay: Inhibition of EGFR phosphorylation in human HT-29 cells incubated for 24 hrs by Western blotting analysis; format: cell-based
[17] = target: Receptor tyrosine-protein kinase erbB-2 (Homo sapiens) (UniProt P04626); assay: Inhibition of HER2 phosphorylation in human HT-29 cells incubated for 24 hrs by Western blotting analysis; format: cell-based
[18] = target: Epidermal growth factor receptor (Homo sapiens) (UniProt P00533); assay: Inhibition of EGFR in human SW480 cells incubated for 24 hrs by Western blotting analysis; format: cell-based
[19] = target: Receptor tyrosine-protein kinase erbB-2 (Homo sapiens) (UniProt P04626); assay: Inhibition of HER2 in human SW480 cells incubated for 24 hrs by Western blotting analysis; format: cell-based
[20] = target: Epidermal growth factor receptor (Homo sapiens) (UniProt P00533); assay: Inhibition of EGFR phosphorylation in human SW480 cells incubated for 24 hrs by Western blotting analysis; format: cell-based
[21] = target: Receptor tyrosine-protein kinase erbB-2 (Homo sapiens) (UniProt P04626); assay: Inhibition of HER2 phosphorylation in human SW480 cells incubated for 24 hrs by Western blotting analysis; format: cell-based
HT-29 [22] = assay: Inhibition of EGFR in human HT-29 cells xenografted in BALB/c nude mouse assessed as EGFR protein level in tumor at 2.5 mg/kg/day, ip administrated for every other day and measured after 28 days by Western blotting analysis; format: functional, organism-based; conditions: time 28.0 day
HT-29 [23] = assay: Inhibition of HER2 in human HT-29 cells xenografted in BALB/c nude mouse assessed as reduction in HER2 protein expression level at 2.5 mg/kg/day, ip administrated for every other day and measured after 28 days by immunohistochemistry staining based analysis; format: functional, organism-based; conditions: time 28.0 day
[24] = target: Epidermal growth factor receptor (Homo sapiens) (UniProt P00533); assay: Inhibition of EGFR in human HT-29 cells assessed as reduction in ratio of p-EGFR/EGFR level at 2 uM measured after 3 to 15 hrs by Western blot analysis; format: cell-based; conditions: time 3-15 hrs
[25] = target: Epidermal growth factor receptor (Homo sapiens) (UniProt P00533); assay: Inhibition of EGFR in human HT-29 cells assessed as reduction in Erk1/2 phosphorylation level at 0.5 to 2 uM incubated for 24 hrs by Western blotting analysis; format: cell-based; conditions: dose 0.5-2 µM
[26] = target: Epidermal growth factor receptor (Homo sapiens) (UniProt P00533); assay: Inhibition of EGFR in human SW480 cells assessed as reduction in MEK1/2 phosphorylation level at 0.5 to 2 uM incubated for 24 hrs by Western blotting analysis; format: cell-based; conditions: dose 0.5-2 µM
[27] = target: Epidermal growth factor receptor (Homo sapiens) (UniProt P00533); assay: Inhibition of EGFR in human SW480 cells assessed as reduction in Erk1/2 phosphorylation level at 0.5 to 2 uM incubated for 24 hrs by Western blotting analysis; format: cell-based; conditions: dose 0.5-2 µM
[28] = target: Epidermal growth factor receptor (Homo sapiens) (UniProt P00533); assay: Inhibition of EGFR in human SW480 cells assessed as reduction in STAT3 phosphorylation level at 0.5 to 2 uM incubated for 24 hrs by Western blot analysis; format: cell-based; conditions: dose 0.5-2 µM
[29] = target: Epidermal growth factor receptor (Homo sapiens) (UniProt P00533); assay: Inhibition of EGFR in human HT-29 cells assessed as reduction in MEK1/2 phosphorylation level at 3.75 to 15 uM incubated for 24 hrs by Western blotting analysis; format: cell-based; conditions: dose 3.75-15 µM
HT-29 [30] = assay: Antitumor activity against human HT-29 cells xenografted Balb/c mouse assessed as reduction in tumor growth at 5 mg/kg/day, ip administrated for every other day and measured after 28 days; format: functional, organism-based; conditions: time 28.0 day
HT-29 [31] = assay: Inhibition of colony formation in double EGFR/HER2 knockdown human HT-29 cells at 6 uM incubated for 14 days by crystal violet staining based colony formation assay; format: functional, cell-based; conditions: time 14.0 day
SW480 [32] = assay: Inhibition of colony formation in EGFR knockdown human SW480 cells at 6 uM incubated for 14 days by crystal violet staining based colony formation assay; format: functional, cell-based; conditions: time 14.0 day
[33] = target: Epidermal growth factor receptor (Homo sapiens) (UniProt P00533); assay: Inhibition of EGFR in human SW480 cells assessed as reduction in MEK1/2 phosphorylation level at 3.75 to 15 uM incubated for 24 hrs by Western blot analysis; format: cell-based; conditions: dose 3.75-15 µM
HT-29 [34] = assay: Inhibition of EGFR in human HT-29 cells xenografted in BALB/c nude mouse assessed as reduction in EGFR protein expression level in tumor at 5 mg/kg/day, ip administrated for every other day and measured after 28 days by immunohistochemistry staining based analysis; format: functional, organism-based; conditions: time 28.0 day
HT-29 [35] = assay: Inhibition of HER2 in human HT-29 cells xenografted in BALB/c nude mouse assessed as reduction in HER2 protein expression level at 5 mg/kg/day, ip administrated for every other day and measured after 28 days by immunohistochemistry staining based analysis; format: functional, organism-based; conditions: time 28.0 day

| SMILES | Activity (HT-29 [1]) | IC50 (HT-29 [1]) [µM] | Activity (SW480 [2]) | Activity (SW-620) | Activity (HCT-116) | Activity (LoVo [3]) | IC50 (RKO) [µM] | Activity (DLD-1) | Activity (HT-29 [9]) | Activity (SW480 [10]) | Activity (HT-29 [11]) | Activity (HT-29 [12]) | Activity (SW480 [13]) | inhibition [14] | inhibition [15] | inhibition [16] | inhibition [17] | inhibition [18] | inhibition [19] | inhibition [20] | other results |
| --- | --- | --- | --- | --- | --- | --- | --- | --- | --- | --- | --- | --- | --- | --- | --- | --- | --- | --- | --- | --- | --- |
| CC[C@H]1CCC[C@H](O[C@H]2CC[C@H](N(C)CC(O)CN3CCNCC3)[C@@H](C)O2)[C@@H](C)C(=O)C2=C[C@@H]3[C@@H](C=C[C@@H]4C[C@@H](O[C@@H]5O[C@@H](C)[C@H](OC)[C@@H](OC)[C@H]5OC)C[C@@H]34)[C@@H]2CC(=O)O1 (stereo partly drawn) | Dose-Dependent Effect | 0.75 | Dose-Dependent Effect | Dose-Dependent Effect | Dose-Dependent Effect | Dose-Dependent Effect | 3.3 | Dose-Dependent Effect | inactive | inactive | inactive | inactive | inactive | Dose-Dependent Effect | Dose-Dependent Effect | Dose-Dependent Effect | Dose-Dependent Effect | Dose-Dependent Effect | Dose-Dependent Effect | Dose-Dependent Effect | inhibition (RKO; dose >= 10.0 µM): Dose-Dependent Effect; inhibition (LoVo [4]): Active; Activity (HT-29 [5]): Active; Activity (HT-29 [6]): Active; Activity [7]: Non-Toxic; Activity [8]: Non-Toxic; inhibition [21]: Dose-Dependent Effect; inhibition (HT-29 [22]): Active; inhibition (HT-29 [23]): Active; inhibition [24]: Active; inhibition [25]: Active; inhibition [26]: Active; inhibition [27]: Active; inhibition [28]: Active |
| CC[C@H]1CCC[C@H](O[C@H]2CC[C@H](N(C)C)[C@@H](C)O2)[C@@H](C)C(=O)C2=C[C@@H]3[C@@H](C=C[C@@H]4C[C@@H](O[C@@H]5O[C@@H](C)[C@H](OC)[C@@H](OC)[C@H]5OC)C[C@@H]34)[C@@H]2CC(=O)O1 [SPINOSYN A] | Dose-Dependent Effect | 7.3 | Dose-Dependent Effect | Dose-Dependent Effect | Dose-Dependent Effect | Dose-Dependent Effect | 17 | Dose-Dependent Effect | inactive | inactive | inactive | inactive | inactive | Dose-Dependent Effect | Dose-Dependent Effect | Dose-Dependent Effect | Dose-Dependent Effect | Dose-Dependent Effect | Dose-Dependent Effect | Dose-Dependent Effect | inhibition [29]: Active; Activity (RKO; dose >= 10.0 µM): Dose-Dependent Effect; Activity (HT-29 [30]): Active; Activity (HT-29 [31]): inactive; Activity (SW480 [32]): Active; inhibition [21]: Dose-Dependent Effect; inhibition [33]: Active; inhibition (HT-29 [34]): Active; inhibition (HT-29 [35]): Active |
